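Where inhibition never reached the appropriate level, the endpoint shown equals the highest concentration tested. Otherwise, values were interpolated linearly from a five-concentration, 48-hour dose response in 96-well plates. Abbreviation: GI50, concentration required for 50% inhibition of growth.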 Active and inactive are the calls of the source. No stated cut-off is given here; in the data, active = GI50 up to about 1.1 µM and inactive = higher.
What was measured:
Assay in all cases: DTP human tumour cell line panel, 48 h
LXFL 529 = tested on: LXFL 529
M19-MEL = tested on: M19-MEL
RXF 631 = tested on: RXF 631
HOP-18 = tested on: HOP-18
DLD-1 = tested on: DLD-1
DMS-114 = tested on: DMS-114
XF498 = tested on: XF498
KM-20L2 = tested on: KM-20L2
SNB-78 = tested on: SNB-78

Measured: GI50

CC(C)(C)OC(=O)N[C@H]1CC(O)c2ccccc2N(CC(=O)O)C1=O (stereo partly drawn)
inactive: LXFL 529 > 100 µM | M19-MEL > 100 µM | RXF 631 > 100 µM | HOP-18 > 100 µM | DLD-1 > 100 µM | DMS-114 > 100 µM | XF498 > 100 µM | KM-20L2 > 100 µM

COc1ccc(NC(=O)C2=CC(=O)c3ccc(O)cc3C2=O)c(OC)c1
inactive: LXFL 529 > 100 µM | M19-MEL > 100 µM | RXF 631 > 100 µM | SNB-78 > 100 µM | HOP-18 > 100 µM | DLD-1 > 100 µM | DMS-114 > 100 µM | XF498 > 100 µM | KM-20L2 > 100 µM

Nc1ccc(CCN2CCN(c3cccc(C(F)(F)F)c3)CC2)cc1
inactive: LXFL 529 > 100 µM | M19-MEL > 100 µM | RXF 631 56.5 µM | HOP-18 > 100 µM | DLD-1 97.1 µM | DMS-114 26.4 µM | XF498 > 100 µM | KM-20L2 > 100 µM

Cc1ccc(Cc2c(=O)[nH]nc3ccccc23)cc1
inactive: M19-MEL > 100 µM | RXF 631 > 100 µM | SNB-78 > 100 µM | HOP-18 > 100 µM | DLD-1 > 100 µM | DMS-114 > 100 µM | XF498 30.2 µM | KM-20L2 > 100 µM

Cc1cc(=O)oc2cc3c(cc12)Oc1ccccc1O3
inactive: LXFL 529 > 100 µM | M19-MEL > 100 µM | RXF 631 > 100 µM | SNB-78 53 µM | HOP-18 > 100 µM | DLD-1 > 100 µM | DMS-114 > 100 µM | XF498 > 10 µM | KM-20L2 > 100 µM

Cc1cc2c(C)n(Cc3ccc(Cl)cc3Cl)nc2c(C(=O)O)c1C
inactive: LXFL 529 > 100 µM | M19-MEL > 100 µM | RXF 631 > 100 µM | SNB-78 > 100 µM | HOP-18 > 100 µM | DLD-1 > 100 µM | XF498 > 100 µM | KM-20L2 > 100 µM

Nc1ccc2c(SCC(=O)Nc3ccccc3-c3ccccc3NC(=O)CSc3c4ccccc4nc4cc(N)ccc34)c3ccccc3nc2c1
inactive: LXFL 529 11.5 µM | M19-MEL 20.2 µM | RXF 631 27.9 µM | SNB-78 40.9 µM | HOP-18 26 µM | DLD-1 12.9 µM | DMS-114 18.9 µM | XF498 19.9 µM | KM-20L2 33.1 µM

O=C(Nc1ccc(Cl)cc1)C1C(=O)C(=O)N(c2ccc(Cl)cc2)C1=O (stereo not drawn)
inactive: LXFL 529 59.2 µM | M19-MEL > 100 µM | RXF 631 > 100 µM | SNB-78 54 µM | HOP-18 > 100 µM | DLD-1 68.9 µM | DMS-114 > 100 µM | XF498 > 100 µM | KM-20L2 45.8 µM

NN/C(Cc1ccccc1)=N/NC(N)=S
inactive: LXFL 529 > 100 µM | M19-MEL > 100 µM | RXF 631 > 100 µM | HOP-18 24 µM | DLD-1 > 100 µM | DMS-114 41.3 µM | XF498 > 100 µM | KM-20L2 > 100 µM

CCOC(=O)/C(O)=C(/C(=O)OC)c1ccc(Cl)cc1
inactive: LXFL 529 > 100 µM | M19-MEL > 100 µM | RXF 631 > 100 µM | SNB-78 > 100 µM | DLD-1 > 100 µM | DMS-114 > 100 µM | XF498 > 100 µM | KM-20L2 > 100 µM

O=c1ccn(/C=C/C(O)C(O)CO)c(=O)[nH]1 (stereo not drawn)
inactive: LXFL 529 > 100 µM | M19-MEL > 100 µM | RXF 631 > 100 µM | SNB-78 > 100 µM | HOP-18 > 100 µM | DLD-1 > 100 µM | DMS-114 > 100 µM | XF498 > 100 µM | KM-20L2 > 100 µM
